Source: ChEMBL document CHEMBL5465560, “Selectivity Literature for EUbOPEN Chemogenomic Library” (2024)
Blank lines part the entries; values can stand above or below the compound they belong to.

Tests used:
[1] = target: T1, Tyrosine-protein kinase ZAP-70 (Homo sapiens) (UniProt P43403); experiment: Selectivity interaction (SelectScreen profiling (Invitrogen)) EUB0000607a ZAP70; settings: at 2 µM
T1 sequence (whole entry): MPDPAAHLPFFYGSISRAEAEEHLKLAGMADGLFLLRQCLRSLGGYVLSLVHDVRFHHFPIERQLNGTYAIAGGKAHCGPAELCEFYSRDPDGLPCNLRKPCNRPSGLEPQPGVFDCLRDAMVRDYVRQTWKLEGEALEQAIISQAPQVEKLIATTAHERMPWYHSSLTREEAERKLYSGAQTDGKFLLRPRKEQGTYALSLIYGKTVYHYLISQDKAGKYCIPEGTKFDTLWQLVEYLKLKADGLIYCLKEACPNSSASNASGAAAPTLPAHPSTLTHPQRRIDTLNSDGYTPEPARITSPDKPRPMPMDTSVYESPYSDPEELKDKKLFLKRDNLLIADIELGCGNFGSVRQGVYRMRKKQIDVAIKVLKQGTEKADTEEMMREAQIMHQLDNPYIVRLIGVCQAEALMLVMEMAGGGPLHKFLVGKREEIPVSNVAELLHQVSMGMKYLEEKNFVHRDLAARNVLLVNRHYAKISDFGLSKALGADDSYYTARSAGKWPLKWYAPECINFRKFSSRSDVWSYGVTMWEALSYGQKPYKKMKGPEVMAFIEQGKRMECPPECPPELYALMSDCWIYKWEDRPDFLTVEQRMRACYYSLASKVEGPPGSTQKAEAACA

[2] = target: Receptor tyrosine-protein kinase erbB-4 (Homo sapiens, UniProt Q15303); experiment: Selectivity interaction (ProQinase) EUB0000171b ERBB4
[3] = target: Transient receptor potential cation channel subfamily M member 6 (Homo sapiens) (UniProt Q9BX84); experiment: Selectivity interaction (KinomeScan (DiscoverX)) EUB0000595a TRPM6; settings: at 10 µM
[4] = target: Serine/threonine-protein kinase MARK2 (Homo sapiens) (UniProt Q7KZI7); experiment: Selectivity interaction (KinomeScan (DiscoverX)) EUB0001049a MARK2; settings: at 1 µM
[5] = target: Mitogen-activated protein kinase kinase kinase 20 (Homo sapiens) (UniProt Q9NYL2); experiment: Selectivity interaction (Ambit KINOMEscan and KiNATiv profiling in Jurkat cells) EUB0000090b MAP3K20; assay type: cell-based; settings: at 1 µM
[6] = target: Tyrosine-protein kinase Fes/Fps (Homo sapiens) (UniProt P07332); experiment: Selectivity interaction (KinomeScan (DiscoverX)) EUB0001079a FES; settings: at 1 µM
[7] = target: T2, Mitogen-activated protein kinase 12 (Homo sapiens) (UniProt P53778); experiment: Selectivity interaction (KinomeScan (DiscoverX)) EUB0001079a MAPK12; settings: at 1 µM
T2 sequence (whole entry): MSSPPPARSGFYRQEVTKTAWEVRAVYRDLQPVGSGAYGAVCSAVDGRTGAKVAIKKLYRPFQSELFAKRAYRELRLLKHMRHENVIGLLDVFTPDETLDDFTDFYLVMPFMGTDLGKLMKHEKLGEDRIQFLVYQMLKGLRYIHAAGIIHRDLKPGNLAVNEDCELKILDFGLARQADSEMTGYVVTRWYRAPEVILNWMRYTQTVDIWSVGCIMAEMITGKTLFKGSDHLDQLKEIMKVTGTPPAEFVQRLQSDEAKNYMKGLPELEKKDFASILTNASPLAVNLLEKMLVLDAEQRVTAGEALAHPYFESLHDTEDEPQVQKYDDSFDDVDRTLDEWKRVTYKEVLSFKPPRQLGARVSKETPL

[8] = target: Serine/threonine-protein kinase 32A (Homo sapiens) (UniProt Q8WU08); experiment: Selectivity interaction (KinomeScan (DiscoverX)) EUB0000229b STK32A; settings: at 10 µM
[9] = tested on: ALK tyrosine kinase receptor (Homo sapiens), Q9UM73 [L1196M]; experiment: (§1) Selectivity interaction (KinomeScan (DiscoverX)) EUB0000229b ALK; settings: at 1 µM
[10] = tested on: ALK tyrosine kinase receptor (Homo sapiens), Q9UM73 [C1156Y]; experiment: as §1; settings: at 1 µM
[11] = target: Casein kinase I isoform epsilon (Homo sapiens, UniProt P49674); experiment: Selectivity interaction (KinomeScan (DiscoverX)) EUB0000092b CSNK1E; settings: at 10 µM
[12] = tested on: eIF-2-alpha kinase GCN2 (Homo sapiens), Q9P2K8 [S808G]; experiment: Selectivity interaction (KinomeScan (DiscoverX)) EUB0001619a EIF2AK4; settings: at 1 µM
[13] = target: T3, Inhibitor of nuclear factor kappa-B kinase subunit beta (Homo sapiens) (UniProt O14920); experiment: Selectivity interaction (KinomeScan (DiscoverX)) EUB0001619a IKBKB; settings: at 1 µM
T3 sequence (whole entry): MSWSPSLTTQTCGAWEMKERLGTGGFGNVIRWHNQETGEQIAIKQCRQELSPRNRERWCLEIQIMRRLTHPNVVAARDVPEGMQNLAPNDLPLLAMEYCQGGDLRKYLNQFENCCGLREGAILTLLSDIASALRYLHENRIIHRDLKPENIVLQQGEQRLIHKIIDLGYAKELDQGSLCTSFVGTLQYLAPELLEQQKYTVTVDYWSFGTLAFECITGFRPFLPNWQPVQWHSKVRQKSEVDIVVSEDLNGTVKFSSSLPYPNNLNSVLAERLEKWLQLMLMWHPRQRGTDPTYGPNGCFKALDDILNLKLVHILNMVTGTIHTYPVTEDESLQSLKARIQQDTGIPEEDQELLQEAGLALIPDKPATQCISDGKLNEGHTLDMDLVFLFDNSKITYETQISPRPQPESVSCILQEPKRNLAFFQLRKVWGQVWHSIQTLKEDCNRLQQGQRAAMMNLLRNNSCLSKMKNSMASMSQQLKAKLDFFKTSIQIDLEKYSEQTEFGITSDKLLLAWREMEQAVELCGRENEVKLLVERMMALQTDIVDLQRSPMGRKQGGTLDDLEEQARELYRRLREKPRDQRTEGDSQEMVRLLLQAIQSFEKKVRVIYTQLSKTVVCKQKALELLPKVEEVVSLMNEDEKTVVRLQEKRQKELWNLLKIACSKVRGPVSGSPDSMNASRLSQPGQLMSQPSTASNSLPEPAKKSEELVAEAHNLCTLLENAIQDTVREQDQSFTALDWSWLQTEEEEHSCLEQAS

Sequence of Receptor tyrosine-protein kinase erbB-4 (Q15303 whole entry): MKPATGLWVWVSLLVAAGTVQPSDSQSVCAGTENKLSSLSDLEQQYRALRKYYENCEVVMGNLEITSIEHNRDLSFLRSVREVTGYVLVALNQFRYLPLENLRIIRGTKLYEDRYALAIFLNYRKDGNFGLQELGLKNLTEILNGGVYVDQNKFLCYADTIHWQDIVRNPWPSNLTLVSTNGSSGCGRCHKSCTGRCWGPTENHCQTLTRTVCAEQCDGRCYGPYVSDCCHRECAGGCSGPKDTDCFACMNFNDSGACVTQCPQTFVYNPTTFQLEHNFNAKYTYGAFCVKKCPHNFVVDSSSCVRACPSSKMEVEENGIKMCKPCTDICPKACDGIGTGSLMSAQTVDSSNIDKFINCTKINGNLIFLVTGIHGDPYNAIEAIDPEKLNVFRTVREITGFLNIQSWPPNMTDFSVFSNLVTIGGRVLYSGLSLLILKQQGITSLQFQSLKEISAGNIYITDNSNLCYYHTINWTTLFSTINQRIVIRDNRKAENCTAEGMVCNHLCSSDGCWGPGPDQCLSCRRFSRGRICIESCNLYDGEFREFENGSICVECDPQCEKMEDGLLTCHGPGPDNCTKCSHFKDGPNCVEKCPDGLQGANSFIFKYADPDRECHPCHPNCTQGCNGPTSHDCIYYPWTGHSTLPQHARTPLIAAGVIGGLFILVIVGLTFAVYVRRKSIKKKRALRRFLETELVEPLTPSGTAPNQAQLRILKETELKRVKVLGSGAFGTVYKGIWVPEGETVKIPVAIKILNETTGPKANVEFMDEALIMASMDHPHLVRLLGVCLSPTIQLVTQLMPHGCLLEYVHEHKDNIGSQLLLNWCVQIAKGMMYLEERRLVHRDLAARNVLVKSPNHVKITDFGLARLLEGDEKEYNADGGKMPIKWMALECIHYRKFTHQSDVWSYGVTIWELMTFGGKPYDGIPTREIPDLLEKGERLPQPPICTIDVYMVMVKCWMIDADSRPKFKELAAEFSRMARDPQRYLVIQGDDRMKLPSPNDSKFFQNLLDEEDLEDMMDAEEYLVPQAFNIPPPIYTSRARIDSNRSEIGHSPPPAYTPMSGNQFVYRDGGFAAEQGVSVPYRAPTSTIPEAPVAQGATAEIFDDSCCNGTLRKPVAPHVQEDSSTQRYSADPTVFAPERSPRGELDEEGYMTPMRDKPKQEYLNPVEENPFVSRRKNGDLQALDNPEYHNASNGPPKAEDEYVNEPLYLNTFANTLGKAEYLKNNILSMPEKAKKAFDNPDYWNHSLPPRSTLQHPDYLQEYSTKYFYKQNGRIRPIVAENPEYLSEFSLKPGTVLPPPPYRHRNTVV
Sequence of Serine/threonine-protein kinase 32A (Homo sapiens) (Q8WU08 whole entry): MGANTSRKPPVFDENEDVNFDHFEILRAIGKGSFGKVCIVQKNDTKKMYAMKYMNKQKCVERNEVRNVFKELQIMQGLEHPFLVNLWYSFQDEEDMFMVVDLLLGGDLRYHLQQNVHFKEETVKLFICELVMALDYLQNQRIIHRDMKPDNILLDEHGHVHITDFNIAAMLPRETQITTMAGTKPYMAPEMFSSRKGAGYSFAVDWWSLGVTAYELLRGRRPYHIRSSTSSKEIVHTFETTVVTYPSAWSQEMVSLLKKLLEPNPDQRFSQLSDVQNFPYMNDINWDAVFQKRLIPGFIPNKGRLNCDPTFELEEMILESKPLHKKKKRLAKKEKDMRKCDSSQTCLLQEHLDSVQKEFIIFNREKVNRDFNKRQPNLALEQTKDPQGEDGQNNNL
Sequence of Transient receptor potential cation channel subfamily M member 6 (Homo sapiens) (Q9BX84 whole entry): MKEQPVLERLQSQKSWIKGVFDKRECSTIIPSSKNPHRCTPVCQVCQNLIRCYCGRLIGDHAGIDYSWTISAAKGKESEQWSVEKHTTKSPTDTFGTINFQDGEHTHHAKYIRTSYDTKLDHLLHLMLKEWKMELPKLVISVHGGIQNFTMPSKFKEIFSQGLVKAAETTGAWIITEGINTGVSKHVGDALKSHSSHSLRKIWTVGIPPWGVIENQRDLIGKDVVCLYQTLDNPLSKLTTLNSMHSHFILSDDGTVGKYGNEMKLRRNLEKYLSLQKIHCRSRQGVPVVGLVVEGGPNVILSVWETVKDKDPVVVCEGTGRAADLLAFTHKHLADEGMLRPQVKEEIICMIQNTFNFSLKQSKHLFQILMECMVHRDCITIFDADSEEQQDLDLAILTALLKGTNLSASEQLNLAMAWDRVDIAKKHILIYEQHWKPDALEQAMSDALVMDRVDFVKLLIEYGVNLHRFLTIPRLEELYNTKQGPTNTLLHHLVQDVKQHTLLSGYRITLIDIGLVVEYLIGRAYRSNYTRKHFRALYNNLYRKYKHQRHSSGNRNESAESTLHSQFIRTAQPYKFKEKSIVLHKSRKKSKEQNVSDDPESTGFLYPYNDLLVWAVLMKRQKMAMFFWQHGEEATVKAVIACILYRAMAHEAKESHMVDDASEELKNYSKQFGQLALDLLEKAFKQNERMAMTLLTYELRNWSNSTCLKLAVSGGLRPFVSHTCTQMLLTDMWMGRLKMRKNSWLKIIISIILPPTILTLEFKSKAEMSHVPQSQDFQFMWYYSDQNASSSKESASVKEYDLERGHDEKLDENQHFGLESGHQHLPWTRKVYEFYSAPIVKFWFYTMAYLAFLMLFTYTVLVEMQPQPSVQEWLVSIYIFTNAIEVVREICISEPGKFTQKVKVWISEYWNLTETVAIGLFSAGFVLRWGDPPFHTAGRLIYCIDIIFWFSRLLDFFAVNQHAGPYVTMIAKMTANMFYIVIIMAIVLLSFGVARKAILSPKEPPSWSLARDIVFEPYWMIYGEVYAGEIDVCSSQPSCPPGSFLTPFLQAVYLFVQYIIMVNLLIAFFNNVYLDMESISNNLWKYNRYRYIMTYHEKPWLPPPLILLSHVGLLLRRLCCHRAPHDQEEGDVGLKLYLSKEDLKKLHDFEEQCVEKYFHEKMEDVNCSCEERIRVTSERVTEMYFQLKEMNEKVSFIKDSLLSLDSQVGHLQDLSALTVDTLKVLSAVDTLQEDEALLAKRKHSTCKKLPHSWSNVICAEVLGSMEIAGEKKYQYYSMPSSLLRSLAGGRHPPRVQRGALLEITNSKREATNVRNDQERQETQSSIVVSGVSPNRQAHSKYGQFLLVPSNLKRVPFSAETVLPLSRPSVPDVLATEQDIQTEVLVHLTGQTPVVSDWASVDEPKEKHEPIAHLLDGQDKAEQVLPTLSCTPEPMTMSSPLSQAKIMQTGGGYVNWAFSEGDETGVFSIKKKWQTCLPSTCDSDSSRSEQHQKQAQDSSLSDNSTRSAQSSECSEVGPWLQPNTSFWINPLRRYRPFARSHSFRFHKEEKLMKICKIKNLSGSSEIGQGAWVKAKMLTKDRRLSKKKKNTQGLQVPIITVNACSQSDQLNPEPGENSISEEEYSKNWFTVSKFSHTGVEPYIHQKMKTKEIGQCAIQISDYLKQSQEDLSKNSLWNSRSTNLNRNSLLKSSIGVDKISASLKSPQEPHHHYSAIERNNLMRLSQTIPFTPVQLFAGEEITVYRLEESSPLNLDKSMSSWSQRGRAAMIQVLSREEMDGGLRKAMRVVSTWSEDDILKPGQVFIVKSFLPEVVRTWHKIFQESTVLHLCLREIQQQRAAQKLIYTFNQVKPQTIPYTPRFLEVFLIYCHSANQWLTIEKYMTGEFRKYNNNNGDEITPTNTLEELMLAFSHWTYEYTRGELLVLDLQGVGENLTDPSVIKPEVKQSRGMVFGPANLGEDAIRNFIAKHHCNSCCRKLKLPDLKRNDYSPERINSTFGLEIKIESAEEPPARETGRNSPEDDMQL
Sequence of Tyrosine-protein kinase Fes/Fps (Homo sapiens) (P07332 whole entry): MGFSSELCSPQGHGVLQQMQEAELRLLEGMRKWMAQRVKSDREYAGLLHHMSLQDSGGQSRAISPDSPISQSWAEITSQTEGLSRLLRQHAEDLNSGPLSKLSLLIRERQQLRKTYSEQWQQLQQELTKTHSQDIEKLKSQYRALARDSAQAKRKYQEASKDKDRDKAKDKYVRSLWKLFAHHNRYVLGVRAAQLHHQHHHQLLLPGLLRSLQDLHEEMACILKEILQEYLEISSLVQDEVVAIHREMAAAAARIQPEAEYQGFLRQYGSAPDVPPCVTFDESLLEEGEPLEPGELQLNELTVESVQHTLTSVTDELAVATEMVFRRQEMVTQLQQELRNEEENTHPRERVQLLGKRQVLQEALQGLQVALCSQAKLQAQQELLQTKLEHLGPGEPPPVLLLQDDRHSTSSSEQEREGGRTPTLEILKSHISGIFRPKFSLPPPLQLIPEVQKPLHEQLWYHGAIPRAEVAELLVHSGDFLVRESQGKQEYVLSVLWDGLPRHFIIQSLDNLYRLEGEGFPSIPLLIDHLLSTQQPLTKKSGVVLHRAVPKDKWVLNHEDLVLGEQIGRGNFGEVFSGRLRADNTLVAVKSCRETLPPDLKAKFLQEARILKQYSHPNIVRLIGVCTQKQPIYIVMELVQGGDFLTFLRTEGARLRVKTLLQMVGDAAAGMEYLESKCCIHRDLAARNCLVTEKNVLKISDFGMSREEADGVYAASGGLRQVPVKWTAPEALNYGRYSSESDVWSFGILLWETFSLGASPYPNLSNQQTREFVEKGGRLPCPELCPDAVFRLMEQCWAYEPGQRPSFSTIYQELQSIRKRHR
Sequence of Casein kinase I isoform epsilon (P49674 whole entry, looked up, canonical isoform): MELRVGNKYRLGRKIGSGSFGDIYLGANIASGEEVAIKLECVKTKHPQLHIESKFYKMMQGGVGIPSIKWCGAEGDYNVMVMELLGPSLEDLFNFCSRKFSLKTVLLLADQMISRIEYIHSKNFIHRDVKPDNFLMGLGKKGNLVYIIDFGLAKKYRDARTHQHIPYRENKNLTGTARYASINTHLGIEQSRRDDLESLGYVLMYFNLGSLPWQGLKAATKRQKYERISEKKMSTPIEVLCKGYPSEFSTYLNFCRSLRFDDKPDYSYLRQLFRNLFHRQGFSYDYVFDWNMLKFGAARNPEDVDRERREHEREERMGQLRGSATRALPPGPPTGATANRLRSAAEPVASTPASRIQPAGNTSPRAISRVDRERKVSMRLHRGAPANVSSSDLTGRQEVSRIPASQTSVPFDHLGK

Compound: CNC(=O)Nc1ccc(-c2nc(N3CC4CCC(C3)O4)c3cnn(C4CCC5(CC4)OCCO5)c3n2)cc1
% of inhibition [1]: 7%

% of control ([2]; at 1 µM): 93%
% of control ([2]; at 5 µM): 90%
Compound: C=CC(=O)Nc1cccc(C(=O)Nc2ccc(Nc3cc(-c4[nH]c(SC)nc4C)ccn3)cc2)c1

Compound: COCC(=O)NC/C=C/c1ccc2ncnc(Nc3ccc(Oc4ccc(C)nc4)c(C)c3)c2c1 [CP-724714]
% of control [3]: 100%

Compound: COc1cc(Nc2nc(C)cc(-c3cnn4nc(OC)ccc34)n2)cc(C(F)(F)F)c1
% of control [4]: 77%

Compound: CN(C)C/C=C/C(=O)Nc1ccc(C(=O)N2CCCC(Nc3ncc(Cl)c(-c4c[nH]c5ccccc45)n3)C2)cc1 (centres undefined)
% of control [5]: 89%

Compound: Nc1cnc(N2CCc3cc(S(=O)(=O)Nc4c(F)cc(Cl)cc4F)cc(N4CCCC4=O)c32)nc1 [TP-020n]
% of control [6]: 100%
% of control [7]: 100%

Compound: COc1cc(N(C)c2ccnc3ccc(C(F)(F)F)cc23)cc(OC)c1OC
% binding [8]: 82%
% binding [9]: 89%
% binding [10]: 83%

Compound: CCC(=O)N1CCN(c2ccc(-n3c(=O)ccc4cnc5ccc(-c6cnc7ccccc7c6)cc5c43)cc2C(F)(F)F)CC1
% of control [11]: 59%

Compound: N#Cc1cccc(-c2c[nH]c3ncnc(N4CCOCC4)c23)c1
% of control [12]: 100%
% of control [13]: 90%
